Laboratory results reported in US10987359B2, “Oxadiazepinone derivatives and methods of treating hepatitis B infections” (priority 2016, dated 2021).
Where two headings read alike, the source gives them in different places.

Tested on: HBV
Assay: HBV replication inhibition assay (BDNA assay) in HepG2.2.15 cells
Assay type: cell-based
Conditions: HepG2.2.15 cells, read-out: DNA EC50
In short: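 Supernatant encapsidated HBV DNA was measured by bDNA after DNase digestion and proteinase K release. Stably HBV-integrated HepG2.2.15 cells had two 3-day compound exposures (0.5% DMSO). Signals were background-subtracted and normalized to DMSO wells, and EC50 was obtained by four-parameter fit.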

[1] = Hepatitis B virus, HepG2.2.15, HBV replication assay (BDNA assay)

## CN1OC(COCC(F)(F)F)Cn2nc3c(c2C1=O)CN(C(=O)Nc1ccc(F)c(Cl)c1)CC3 (stereo not drawn) [Compound 106, N-(3-chloro-4-fluoro-phenyl)-2-methyl-1-oxo-4-(2,2,2-trifluoroethoxymethyl)-5,8,9,11-tetrahydro-4H-pyrido[2,3]pyrazolo[2,4-d][1,2,5]oxadiazepine-10-carboxamide]
[1]
  EC50: 1 to 100 nM

## [2H]C([2H])([2H])N1OC(CO)Cn2nc3c(c2C1=O)CN(C(=O)Nc1ccc(F)c(Cl)c1)CC3 (stereo not drawn) [Compound 107, N-(3-chloro-4-fluoro-phenyl)-4-(hydroxymethyl)-1-oxo-2-(trideuteriomethyl)-5,8,9,11-tetrahydro-4H-pyrido[2,3]pyrazolo[2,4-d][1,2,5]oxadiazepine-10-carboxamide]
[1]
  EC50: 1 to 100 nM

## CN1OC(CN)Cn2nc3c(c2C1=O)CN(C(=O)Nc1ccc(F)c(Cl)c1)CC3 (stereo not drawn) [Compound 113, 4-(aminomethyl)-N-(3-chloro-4-fluoro-phenyl)-2-methyl-1-oxo-5,8,9,11-tetrahydro-4H-pyrido[2,3]pyrazolo[2,4-d][1,2,5]oxadiazepine-10-carboxamide]
[1]
  EC50: 1 to 100 nM

## CNC(=O)C1Cn2nc3c(c2C(=O)N(C)O1)CN(C(=O)Nc1ccc(F)c(Cl)c1F)CC3 (stereo not drawn) [Compound 118, N10-(3-chloro-2,4-difluorophenyl)-N4,2-dimethyl-1-oxo-1,4,5,8,9,11-hexahydropyrido[4′,3′:3,4]pyrazolo[5,1-d][1,2,5]oxadiazepine-4,10(2H)-dicarboxamide]
[1]
  EC50: 1 to 100 nM

## CNC(=O)C1Cn2nc3c(c2C(=O)N(C)O1)CN(C(=O)Nc1cc(Cl)c(F)cc1F)CC3 (stereo not drawn) [Compound 119, N10-(5-chloro-2,4-difluorophenyl)-N4,2-dimethyl-1-oxo-1,4,5,8,9,11-hexahydropyrido[4′,3′:3,4]pyrazolo[5,1-d][1,2,5]oxadiazepine-4,10(2H)-dicarboxamide]
[1]
  EC50: 100 to 500 nM

## CNC(=O)C1Cn2nc3c(c2C(=O)N(C)O1)CN(C(=O)Nc1ccc(F)c(C#N)c1)CC3 (stereo not drawn) [Compound 120, N10-(3-cyano-4-fluorophenyl)-N4,2-dimethyl-1-oxo-1,4,5,8,9,11-hexahydropyrido[4′,3′:3,4]pyrazolo[5,1-d][1,2,5]oxadiazepine-4,10(2H)-dicarboxamide]
[1]
  EC50: 100 to 500 nM

## C[C@@H]1Cc2nn3c(c2CN1C(=O)Nc1cc(Cl)c(F)cc1F)C(=O)N(C)OC(COCC(F)F)C3 (stereo partly drawn) [Compound 127_D1, (45*,9R)—N-(5-chloro-2,4-difluorophenyl)-4-((2,2-difluoroethoxy)methyl)-2,9-dimethyl-1-oxo-1,4,5,8,9,11-hexahydropyrido[4′,3′:3,4]pyrazolo[5,1-d][1,2,5]oxadiazepine-10(2H)-carboxamide]
HBV replication assay (BDNA assay)
  EC50: 100 to 500 nM

## CN1OC(COC(F)(F)F)Cn2nc3c(c2C1=O)CN(C(=O)Nc1ccc(F)c(Cl)c1)CC3 (stereo not drawn) [Compound 128, N-(3-chloro-4-fluorophenyl)-2-methyl-1-oxo-4-((trifluoromethoxy)methyl)-1,4,5,8,9,11-hexahydropyrido[4′,3′:3,4]pyrazolo[5,1-d][1,2,5]oxadiazepine-10(2H)-carboxamide]
[1]
  EC50: 1 to 100 nM

## CN1OC(CNS(=O)(=O)CC(F)(F)F)Cn2nc3c(c2C1=O)CN(C(=O)Nc1ccc(F)c(Cl)c1)CC3 (stereo not drawn) [Compound 130, N-(3-chloro-4-fluorophenyl)-2-methyl-1-oxo-4-(((2,2,2-trifluoroethyl)sulfonamido)methyl)-1,4,5,8,9,11-hexahydropyrido[4′,3′:3,4]pyrazolo[5,1-d][1,2,5]oxadiazepine-10(2H)-carboxamide]
[1]
  EC50: 1 to 100 nM

## CN1OC(C(=O)N2CC(F)(F)C2)Cn2nc3c(c2C1=O)CN(C(=O)Nc1ccc(F)c(Cl)c1)CC3 (stereo not drawn) [Compound 131, N-(3-chloro-4-fluorophenyl)-4-(3,3-difluoroazetidine-1-carbonyl)-2-methyl-1-oxo-1,4,5,8,9,11-hexahydropyrido[4′,3′:3,4]pyrazolo[5,1-d][1,2,5]oxadiazepine-10(2H)-carboxamide]
[1]
  EC50: 1 to 100 nM

## CN1OC(C(=O)N2CCC(F)(F)C2)Cn2nc3c(c2C1=O)CN(C(=O)Nc1ccc(F)c(Cl)c1)CC3 (stereo not drawn) [Compound 132, N-(3-chloro-4-fluorophenyl)-4-(3,3-difluoropyrrolidine-1-carbonyl)-2-methyl-1-oxo-1,4,5,8,9,11-hexahydropyrido[4′,3′:3,4]pyrazolo[5,1-d][1,2,5]oxadiazepine-10(2H)-carboxamide]
[1]
  EC50: 1 to 100 nM

## CN(CC(F)(F)F)C(=O)C1Cn2nc3c(c2C(=O)N(C)O1)CN(C(=O)Nc1ccc(F)c(Cl)c1)CC3 (stereo not drawn) [Compound 133, N10-(3-chloro-4-fluorophenyl)-N4,2-dimethyl-1-oxo-N4-(2,2,2-trifluoroethyl)-1,4,5,8,9,11-hexahydropyrido[4′,3′:3,4]pyrazolo[5,1-d][1,2,5]oxadiazepine-4,10(2H)-dicarboxamide]
[1]
  EC50: 1 to 100 nM

## CN(CC(F)F)C(=O)C1Cn2nc3c(c2C(=O)N(C)O1)CN(C(=O)Nc1ccc(F)c(Cl)c1)CC3 (stereo not drawn) [Compound 134, N10-(3-chloro-4-fluorophenyl)-N4-(2,2-difluoroethyl)-N4,2-dimethyl-1-oxo-1,4,5,8,9,11-hexahydropyrido[4′,3′:3,4]pyrazolo[5,1-d][1,2,5]oxadiazepine-4,10(2H)-dicarboxamide]
[1]
  EC50: 1 to 100 nM

## CN1OC(C(=O)NCC(F)(F)F)Cn2nc3c(c2C1=O)CN(C(=O)Nc1ccc(F)c(Cl)c1)CC3 (stereo not drawn) [Compound 135, N10-(3-chloro-4-fluorophenyl)-2-methyl-1-oxo-N4-(2,2,2-trifluoroethyl)-1,4,5,8,9,11-hexahydropyrido[4′,3′:3,4]pyrazolo[5,1-d][1,2,5]oxadiazepine-4,10(2H)-dicarboxamide]
[1]
  EC50: 1 to 100 nM

## CN1OC(C(=O)NCC(F)F)Cn2nc3c(c2C1=O)CN(C(=O)Nc1ccc(F)c(Cl)c1)CC3 (stereo not drawn) [Compound 136, N10-(3-chloro-4-fluorophenyl)-N4-(2,2-difluoroethyl)-2-methyl-1-oxo-1,4,5,8,9,11-hexahydropyrido[4′,3′:3,4]pyrazolo[5,1-d][1,2,5]oxadiazepine-4,10(2H)-dicarboxamide]
[1]
  EC50: 1 to 100 nM

## CN(CC(F)F)C(=O)C1Cn2nc3c(c2C(=O)N(C)O1)CN(C(=O)Nc1ccc(F)c(Cl)c1F)CC3 (stereo not drawn) [Compound 158, N10-(3-chloro-2,4-difluorophenyl)-N4-(2,2-difluoroethyl)-N4,2-dimethyl-1-oxo-1,4,5,8,9,11-hexahydropyrido[4′,3′:3,4]pyrazolo[5,1-d][1,2,5]oxadiazepine-4,10(2H)-dicarboxamide]
[1]
  EC50: 1 to 100 nM

## CN(CC(F)F)C(=O)C1Cn2nc3c(c2C(=O)N(C)O1)CN(C(=O)Nc1cc(Cl)c(F)cc1F)CC3 (stereo not drawn) [Compound 159, N10-(5-chloro-2,4-difluorophenyl)-N4-(2,2-difluoroethyl)-N4,2-dimethyl-1-oxo-1,4,5,8,9,11-hexahydropyrido[4′,3′:3,4]pyrazolo[5,1-d][1,2,5]oxadiazepine-4,10(2H)-dicarboxamide]
[1]
  EC50: 1 to 100 nM

## CN(CC(F)F)C(=O)C1Cn2nc3c(c2C(=O)N(C)O1)CN(C(=O)Nc1ccc(F)c(C#N)c1)CC3 (stereo not drawn) [Compound 160, N10-(3-cyano-4-fluorophenyl)-N4-(2,2-difluoroethyl)-N4,2-dimethyl-1-oxo-1,4,5,8,9,11-hexahydropyrido[4′,3′:3,4]pyrazolo[5,1-d][1,2,5]oxadiazepine-4,10(2H)-dicarboxamide]
[1]
  EC50: 1 to 100 nM
